Here are results for 17 compounds from patent US9624208B2, “Benzoxazolinone compounds with selective activity in voltage-gated sodium channels” (Merck Sharp & Dohme Corp., priority 2012, dated 2017).

For one assay, the target named is T1, human Nav1.5 (Homo sapiens, UniProt Q14524).
T1 construct: expressed in transfected cells
Kind of assay: PatchXpress sodium current measurement, inactivated state block, Nav1.5. It counts as cell-based. As to conditions: determined by PatchXpress measurement, HEK 293 cells. How it is done:
(§1) Cell Based Assays for Nav 1.7 and Nav 1.5 Activity
(§2) Compounds were tested on human Nav1.7 and Nav1.5 channels stably expressed in HEK 293 cells.
(§3) Sodium Current Measurements on the PatchXpress 7000:
(§4) To measure inactivated state block of sodium channels, test compounds were characterized in an automated PatchXpress® assay (Molecular Devices) using a double-pulse protocol on human Nav1.7 and Nav1.5 channels stably expressed in HEK 293 cells. Cells were held at a potential 20 mV negative to the potential at which ˜50% of the channels are inactivated. A 8000 ms pre-pulse 7 mV positive to the potential at which ˜50% of the channels are inactivated was given followed by a hyperpolarizing 2 ms pulse to −120 mV and a 20 ms test pulse to −20 mV. The protocol was applied to cells in the absence, presence of compound and after washout. The temperature of PatchXpress® instruments was maintained at 22° C. The following recording solutions were used. Internal solution (mM): 30 CsCl, 5 HEPES, 10 EGTA, 120 CsF, 5 NaF, 2 MgCl2, pH 7.3 with CsOH. External solution (mM): 120 NMDG, 40 NaCl, 1 KCl, 0.5 MgCl2, 5 HEPES, 2.7 CaCl2, pH 7.5 with NMDG-OH. Estimated IC50 values were calculated based on at least two compound concentrations tested. For all electrophysiology experiments, offline analysis was used to correct for current rundown and to determine percent inhibition as a function of drug concentration. IC50 values were determined by fitting to the Hill equation.

Another assay addresses T2, human Nav1.7 (Homo sapiens, UniProt Q15858).
T2 construct: expressed in transfected cells
Kind of assay: PatchXpress sodium current measurement, inactivated state block, Nav1.7. It counts as cell-based. Particulars: channels stably expressed in HEK 293 cells, double-pulse protocol, 22° C., read-out: potency for the Nav 1.7 sodium ion channel (1.7=). How it is done:
as §1, §2, §3, §4

The structures appear in SMILES notation. Where “and” joins values, the source holds several entries; their conditions need not be identical. Equal values may be shown once.

T1 sequence (Q14524 whole entry): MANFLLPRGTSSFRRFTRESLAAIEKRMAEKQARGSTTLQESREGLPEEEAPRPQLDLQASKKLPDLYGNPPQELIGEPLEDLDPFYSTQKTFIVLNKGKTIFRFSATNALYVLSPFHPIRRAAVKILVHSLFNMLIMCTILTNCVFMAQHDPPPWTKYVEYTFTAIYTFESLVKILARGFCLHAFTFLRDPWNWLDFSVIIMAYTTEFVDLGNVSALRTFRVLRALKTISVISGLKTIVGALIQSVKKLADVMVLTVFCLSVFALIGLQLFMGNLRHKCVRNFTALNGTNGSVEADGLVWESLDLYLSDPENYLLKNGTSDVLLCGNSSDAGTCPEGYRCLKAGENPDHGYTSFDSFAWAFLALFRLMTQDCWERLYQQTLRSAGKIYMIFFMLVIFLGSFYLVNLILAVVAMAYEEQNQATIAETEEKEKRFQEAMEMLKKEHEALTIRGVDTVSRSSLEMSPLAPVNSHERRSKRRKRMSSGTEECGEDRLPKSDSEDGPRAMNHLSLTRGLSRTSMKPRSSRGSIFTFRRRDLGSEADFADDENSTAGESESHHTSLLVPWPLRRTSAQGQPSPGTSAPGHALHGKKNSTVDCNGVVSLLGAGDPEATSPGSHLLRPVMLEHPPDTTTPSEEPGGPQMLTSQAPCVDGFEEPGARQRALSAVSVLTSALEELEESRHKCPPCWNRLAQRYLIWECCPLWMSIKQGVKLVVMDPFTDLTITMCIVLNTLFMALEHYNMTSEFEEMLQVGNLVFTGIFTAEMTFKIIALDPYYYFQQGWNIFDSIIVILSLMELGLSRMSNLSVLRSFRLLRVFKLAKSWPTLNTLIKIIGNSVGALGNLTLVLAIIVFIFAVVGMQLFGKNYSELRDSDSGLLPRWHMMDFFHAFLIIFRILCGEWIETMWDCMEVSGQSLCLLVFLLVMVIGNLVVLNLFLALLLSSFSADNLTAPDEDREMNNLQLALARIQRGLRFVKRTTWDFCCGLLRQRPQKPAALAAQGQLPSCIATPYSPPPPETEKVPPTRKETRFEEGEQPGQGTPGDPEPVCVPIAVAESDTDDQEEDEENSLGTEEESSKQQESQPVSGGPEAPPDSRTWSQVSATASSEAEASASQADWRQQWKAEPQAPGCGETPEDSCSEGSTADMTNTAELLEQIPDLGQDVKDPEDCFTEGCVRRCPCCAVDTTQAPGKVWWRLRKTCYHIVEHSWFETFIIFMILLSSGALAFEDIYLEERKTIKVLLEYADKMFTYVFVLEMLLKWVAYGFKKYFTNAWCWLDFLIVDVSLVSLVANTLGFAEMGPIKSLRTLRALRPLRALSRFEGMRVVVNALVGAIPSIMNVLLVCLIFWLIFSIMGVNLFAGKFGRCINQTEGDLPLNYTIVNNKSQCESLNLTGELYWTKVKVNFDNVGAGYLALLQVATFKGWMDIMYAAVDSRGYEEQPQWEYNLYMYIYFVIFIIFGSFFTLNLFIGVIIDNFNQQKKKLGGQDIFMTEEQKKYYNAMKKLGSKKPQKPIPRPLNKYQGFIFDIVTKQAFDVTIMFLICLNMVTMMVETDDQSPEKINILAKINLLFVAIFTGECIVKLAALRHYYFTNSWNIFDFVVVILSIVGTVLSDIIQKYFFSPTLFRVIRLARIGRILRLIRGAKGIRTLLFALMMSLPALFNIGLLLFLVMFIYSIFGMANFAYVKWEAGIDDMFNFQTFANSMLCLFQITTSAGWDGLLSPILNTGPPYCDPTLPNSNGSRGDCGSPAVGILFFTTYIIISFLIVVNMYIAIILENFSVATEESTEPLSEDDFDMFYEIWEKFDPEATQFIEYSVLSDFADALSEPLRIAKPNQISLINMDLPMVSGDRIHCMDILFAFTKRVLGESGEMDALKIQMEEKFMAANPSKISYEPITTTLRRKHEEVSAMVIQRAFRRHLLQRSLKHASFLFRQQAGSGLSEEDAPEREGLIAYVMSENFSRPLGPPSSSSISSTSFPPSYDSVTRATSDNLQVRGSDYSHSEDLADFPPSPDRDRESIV
T2 sequence (Q15858 whole entry): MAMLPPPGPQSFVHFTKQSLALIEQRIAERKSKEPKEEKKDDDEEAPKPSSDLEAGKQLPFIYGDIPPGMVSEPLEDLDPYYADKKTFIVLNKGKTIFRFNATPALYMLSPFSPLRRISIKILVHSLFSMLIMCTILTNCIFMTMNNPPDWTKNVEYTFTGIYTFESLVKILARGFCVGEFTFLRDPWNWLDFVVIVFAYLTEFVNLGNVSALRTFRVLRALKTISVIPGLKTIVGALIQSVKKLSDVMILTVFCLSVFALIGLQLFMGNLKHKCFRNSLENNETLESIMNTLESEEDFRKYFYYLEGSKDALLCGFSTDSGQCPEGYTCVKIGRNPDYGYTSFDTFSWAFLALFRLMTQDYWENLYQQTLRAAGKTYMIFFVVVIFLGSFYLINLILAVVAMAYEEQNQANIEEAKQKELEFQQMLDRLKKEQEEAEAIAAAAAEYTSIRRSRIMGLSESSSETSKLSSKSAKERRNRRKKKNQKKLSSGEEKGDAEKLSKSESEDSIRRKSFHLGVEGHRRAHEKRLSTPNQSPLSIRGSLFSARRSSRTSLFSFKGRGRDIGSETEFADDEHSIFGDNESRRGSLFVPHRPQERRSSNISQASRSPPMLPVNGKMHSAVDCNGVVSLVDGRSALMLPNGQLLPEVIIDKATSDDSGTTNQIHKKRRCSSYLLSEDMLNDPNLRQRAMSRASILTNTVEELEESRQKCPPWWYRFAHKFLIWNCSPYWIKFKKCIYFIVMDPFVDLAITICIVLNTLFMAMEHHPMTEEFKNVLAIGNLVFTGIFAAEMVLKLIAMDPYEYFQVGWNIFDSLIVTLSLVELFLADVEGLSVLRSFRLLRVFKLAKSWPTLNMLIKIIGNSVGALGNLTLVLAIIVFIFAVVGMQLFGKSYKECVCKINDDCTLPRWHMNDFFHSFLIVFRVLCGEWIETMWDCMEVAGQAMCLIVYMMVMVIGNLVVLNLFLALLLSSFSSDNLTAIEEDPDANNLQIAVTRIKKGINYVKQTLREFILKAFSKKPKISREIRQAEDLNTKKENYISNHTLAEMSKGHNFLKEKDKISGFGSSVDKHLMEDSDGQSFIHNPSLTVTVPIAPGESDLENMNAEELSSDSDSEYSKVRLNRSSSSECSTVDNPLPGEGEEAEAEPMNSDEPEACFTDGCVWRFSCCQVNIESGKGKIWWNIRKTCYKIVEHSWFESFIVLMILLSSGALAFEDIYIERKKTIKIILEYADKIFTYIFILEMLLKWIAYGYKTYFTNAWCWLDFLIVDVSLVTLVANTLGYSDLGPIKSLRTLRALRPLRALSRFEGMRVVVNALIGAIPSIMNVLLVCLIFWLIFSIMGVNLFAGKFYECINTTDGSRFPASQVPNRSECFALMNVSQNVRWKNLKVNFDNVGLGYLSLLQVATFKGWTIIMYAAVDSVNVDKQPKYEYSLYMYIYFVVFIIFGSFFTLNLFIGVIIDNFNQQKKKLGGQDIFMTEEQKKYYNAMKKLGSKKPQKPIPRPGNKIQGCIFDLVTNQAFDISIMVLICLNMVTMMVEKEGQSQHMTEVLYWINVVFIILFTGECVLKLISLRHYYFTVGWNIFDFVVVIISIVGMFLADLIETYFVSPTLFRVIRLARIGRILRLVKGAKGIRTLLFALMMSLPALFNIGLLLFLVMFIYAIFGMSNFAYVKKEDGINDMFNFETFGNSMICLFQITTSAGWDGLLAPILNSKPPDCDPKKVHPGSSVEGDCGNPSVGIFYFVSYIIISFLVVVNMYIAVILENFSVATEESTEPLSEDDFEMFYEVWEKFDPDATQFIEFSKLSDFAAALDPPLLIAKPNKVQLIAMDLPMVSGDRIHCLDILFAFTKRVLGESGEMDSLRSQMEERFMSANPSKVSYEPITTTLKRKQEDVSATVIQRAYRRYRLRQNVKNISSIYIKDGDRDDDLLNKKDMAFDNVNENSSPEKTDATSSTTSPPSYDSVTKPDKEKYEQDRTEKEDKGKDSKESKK

As to `C[C@H](c1ccccc1C#C[C@H]1CCCC[C@@H]1N)n1c(=O)oc2cc(S(=O)(=O)Nc3cccc(F)n3)c(F)cc21` (mixture of isomers) [Ex8-5, 3-[(1R)-1-(2-{[(1R,2S and 1S, 2R)-2-aminocyclohexyl]ethynyl}phenyl)ethyl]-5-fluoro-N-(6-fluoropyridin-2-yl)-2-oxo-2,3-dihydro-1,3-benzoxazole-6-sulfonamide], at human Nav1.5, the “ratio of Nav 1.5:Nav 1.7 potency” value is reported as 714. Moreover, the IC50 on human Nav1.7 worked out at 25 nM. For `Cl.O=c1oc2cc(S(=O)(=O)Nc3cccc(F)n3)c(F)cc2n1Cc1cccc2c1CNCC2F` (racemic) [Ex5-9, (+/−)-5-Fluoro-3-((4-fluoro-1,2,3,4-tetrahydroisoquinolin-8-yl)methyl)-N-(6-fluoropyridin-2-yl)-2-oxo-2,3-dihydrobenzo[d]oxazole-6-sulfonamide hydrochloride], the “ratio of Nav 1.5:Nav 1.7 potency” value on human Nav1.5 was 26. Also, the IC50 at human Nav1.7 was 1140 nM. As to `Cl.NC1CCc2cccc(Cn3c(=O)oc4cc(S(=O)(=O)Nc5cccc(F)n5)c(F)cc43)c2C1` (single isomer, unassigned) [Ex13-4, (S or R)-3-((7-Amino-5,6,7,8-tetrahydronaphthalen-1-yl)methyl)-5-fluoro-N-(6-fluoropyridin-2-yl)-2-oxo-2,3-dihydrobenzo[d]oxazole-6-sulfonamide hydrochloride], the “ratio of Nav 1.5:Nav 1.7 potency” value on human Nav1.5 came to 304. The IC50 on human Nav1.7 was determined as 89 nM. As for `NC1CCc2cccc(Cn3c(=O)oc4cc(S(=O)(=O)Nc5cccc(F)n5)c(F)cc43)c2C1` (single isomer, unassigned) [Ex13-5, (R or S)-3-[(7-amino-5,6,7,8-tetrahydronaphthalen-1-yl)methyl]-5-fluoro-N-(6-fluoropyridin-2-yl)-2-oxo-2,3-dihydro-1,3-benzoxazole-6-sulfonamide], the “ratio of Nav 1.5:Nav 1.7 potency” value on human Nav1.5 came out at 914. The IC50 on human Nav1.7 is 40 nM. For `NC1CCc2cccc(Cn3c(=O)oc4cc(S(=O)(=O)Nc5cccc(F)n5)ccc43)c2C1` (single isomer, unassigned) [Ex13-6, (S or R)-3-[(7-amino-5,6,7,8-tetrahydronaphthalen-1-yl)methyl]-N-(6-fluoropyridin-2-yl)-2-oxo-2,3-dihydro-1,3-benzoxazole-6-sulfonamide] the same measures were 43 and 147 nM. As for `Cc1cc2c(cc1S(=O)(=O)Nc1cccc(F)n1)oc(=O)n2Cc1cccc2c1CC(N)CC2` (single isomer, unassigned) [Ex17-5, (R or S)-3-[(7-amino-5,6,7,8-tetrahydronaphthalen-1-yl)methyl]-N-(6-fluoropyridin-2-yl)-5-methyl-2-oxo-2,3-dihydro-1,3-benzoxazole-6-sulfonamide], on human Nav1.5, the “ratio of Nav 1.5:Nav 1.7 potency” value was 310. The IC50 on human Nav1.7 turned out to be 24 nM. For `Cc1cc2c(cc1S(=O)(=O)Nc1cccc(F)n1)oc(=O)n2Cc1cccc2c1CC(N)CC2` (single isomer, unassigned) [Ex17-6, (S or R)-3-[(7-amino-5,6,7,8-tetrahydronaphthalen-1-yl)methyl]-N-(6-fluoropyridin-2-yl)-5-methyl-2-oxo-2,3-dihydro-1,3-benzoxazole-6-sulfonamide] the same measures were 178 and 12 nM. With `O=c1oc2cc(S(=O)(=O)Nc3cccc(F)n3)c(F)cc2n1Cc1cccc2c1CNCC2F` (single isomer, unassigned; enantiomer 1) [Ex5-10, (R or S)-5-fluoro-N-(6-fluoropyridin-2-yl)-3-[(4-fluoro-1,2,3,4-tetrahydroisoquinolin-8-yl)methyl]-2-oxo-2,3-dihydro-1,3-benzoxazole-6-sulfonamide (enantiomer 1)], at human Nav1.5, the “ratio of Nav 1.5:Nav 1.7 potency” value is above 31. Moreover, the IC50 on human Nav1.7 was 961 nM. For `O=c1oc2cc(S(=O)(=O)Nc3cccc(F)n3)c(F)cc2n1Cc1cccc2c1CNCC2F` (single isomer, unassigned; enantiomer 2) [Ex5-11, (S or R)-5-fluoro-N-(6-fluoropyridin-2-yl)-3-[(4-fluoro-1,2,3,4-tetrahydroisoquinolin-8-yl)methyl]-2-oxo-2,3-dihydro-1,3-benzoxazole-6-sulfonamide (enantiomer 2)], on human Nav1.5, the “ratio of Nav 1.5:Nav 1.7 potency” value amounted to 54. Further, on human Nav1.7, the IC50 was determined as 727 nM. For `C[C@H](c1cccc2c1CNCC2)n1c(=O)oc2cc(S(=O)(=O)Nc3cccc(F)n3)ccc21.Cl` [Ex2-5, (R)—N-(6-fluoropyridin-2-yl)-2-oxo-3-(1-(1,2,3,4-tetrahydroisoquinolin-8-yl)ethyl)-2,3-dihydrobenzo[d]oxazole-6-sulfonamide hydrochloride] the same measures were 316 and 152 nM. The like results for `C[C@H](c1cccc2c1CNCC2)n1c(=O)oc2cc(S(=O)(=O)Nc3cccc(F)n3)c(F)cc21.Cl` [Ex3-5, (R)-5-fluoro-N-(6-fluoropyridin-2-yl)-2-oxo-3-(1-(1,2,3,4-tetrahydroisoquinolin-8-yl)ethyl)-2,3-dihydrobenzo[d]oxazole-6-sulfonamide hydrochloride] were, in that order, 158 and 99 nM. The like results for `Nc1ccc2c(c1)C(n1c(=O)oc3cc(S(=O)(=O)Nc4cccc(F)n4)c(F)cc31)CCC2` (stereo not drawn) [Ex4-4, 3-(7-Amino-1,2,3,4-tetrahydronaphthalen-1-yl)-5-fluoro-N-(6-fluoropyridin-2-yl)-2-oxo-2,3-dihydro-1,3-benzoxazole-6-sulfonamide] were, in that order, 166 and 482 nM. `O=c1oc2cc(S(=O)(=O)Nc3cccc(F)n3)c(F)cc2n1C1CCCc2ccc(F)cc21` (stereo not drawn) [Ex4-5, 5-fluoro-N-(6-fluoropyridin-2-yl)-3-(7-fluoro-1,2,3,4-tetrahydronaphthalen-1-yl)-2-oxo-2,3-dlihydro-1,3-benzoxazole-6-sulfonamide]: the “ratio of Nav 1.5:Nav 1.7 potency” value at human Nav1.5 is listed as 101. The IC50 on human Nav1.7 was 650 nM.

As for `C[C@H](c1ccccc1C1=CCNCC1)n1c(=O)oc2cc(S(=O)(=O)Nc3cccc(F)n3)c(F)cc21` [Ex7-5, (R)-5-Fluoro-N-(6-fluoropyridin-2-yl)-2-oxo-3-(1-(2-(1,2,3,6-tetrahydropyridin-4-yl)phenyl)ethyl)-2,3-dihydrobenzo[d]oxazole-6-sulfonamide], the “ratio of Nav 1.5:Nav 1.7 potency” value at human Nav1.5 amounted to 1398. Also, the IC50 on human Nav1.7 came out at 3 nM. With `C[C@H](c1ccccc1C1=CCC(N)CC1)n1c(=O)oc2cc(S(=O)(=O)Nc3cccc(F)n3)c(F)cc21` (stereo partly drawn) [Ex7-6, 3-{(1R)-1-[2-(4-aminocyclohex-1-en-1-yl)phenyl]ethyl}-5-fluoro-N-(6-fluoropyridin-2-yl)-2-oxo-2,3-dihydro-1,3-benzoxazole-6-sulfonamide], the “ratio of Nav 1.5:Nav 1.7 potency” value on human Nav1.5 is listed as 123. For the same compound, the IC50 at human Nav1.7 is 460 nM.

Take `C[C@H](c1ccccc1C1=CCNCCC1)n1c(=O)oc2cc(S(=O)(=O)Nc3cccc(F)n3)c(F)cc21` [Ex7-7, 5-fluoro-N-(6-fluoropyridin-2-yl)-2-oxo-3-{(1R)-1-[2-(2,5,6,7-tetrahydro-1H-azepin-4-yl)phenyl]ethyl}-2,3-dihydro-1,3-benzoxazole-6-sulfonamide]: at human Nav1.5, the “ratio of Nav 1.5:Nav 1.7 potency” value is 239. Besides, the IC50 at human Nav1.7 was 41 nM. With `C[C@H](c1ccccc1CCN)n1c(=O)oc2cc(S(=O)(=O)Nc3cccc(F)n3)c(F)cc21` [Ex24-2, 3-{(1R)-1-[2-(2-aminoethyl)phenyl]ethyl}-5-fluoro-N-(6-fluoropyridin-2-yl)-2-oxo-2,3-dihydro-1,3-benzoxazole-6-sulfonamide], the IC50 at human Nav1.7 is 27 nM and 18 nM.
